Drawing on ChEMBL document CHEMBL1128849, “Synthesis and antibacterial activity of men 10700, a new penem antibiotic” (1995), this text covers MIC and MIC90 for four compounds.

In brackets after ≈: the same amount, converted by molar mass.

Assay [1] has as its system Escherichia coli. Description: In vitro antibacterial activity against Escherichia. coli TEM1. Type of assay: functional.
The subject of assay [2] is Staphylococcus aureus. Description: In vitro antibacterial activity against Staphylococcus aureus ATCC 25923. Type of assay: functional.
The test system of assay [3] is Enterococcus faecalis. Description: In vitro antibacterial activity against Enterococcus faecalis ATCC 29212. Type of assay: functional.
The subject of assay [4] is Staphylococcus aureus. As to the kind of experiment: In vitro antibacterial activity against Staphylococcus aureus ATCC 29213. Type of assay: functional.
The test system of assay [5] is Escherichia coli. As to the kind of experiment: In vitro antibacterial activity against Escherichia. coli SHV. Type of assay: functional.
The test system of assay [6] is Staphylococcus aureus. Description: In vitro antibacterial activity against Staphylococcus aureus MR09. Type of assay: functional.
Assay [7] has as its system Escherichia coli. As to the kind of experiment: In vitro antibacterial activity against Escherichia. coli DC2. Type of assay: functional.
Assay [8] relates to Pseudomonas aeruginosa. As to the kind of experiment: In vitro antibacterial activity against Pseudomonas aeruginosa G242. Type of assay: functional.
The test system of assay [9] is Escherichia coli. Description: In vitro antibacterial activity against Escherichia. coli ATCC 25922. Type of assay: functional.
Assay [10] has as its system Pseudomonas aeruginosa. As to the kind of experiment: In vitro antibacterial activity against Pseudomonas aeruginosa ATCC 27853. Type of assay: functional.
Assay [11] deals with Escherichia coli. Description: In vitro antibacterial activity against Escherichia. coli TEM2. Type of assay: functional.
Assay [12] relates to Pseudomonas aeruginosa. Description: In vitro antibacterial activity against Pseudomonas aeruginosa VR5. Type of assay: functional.
Assay [13] has as its system Staphylococcus aureus. Description: In vitro antibacterial activity against Staphylococcus aureus MR13. Type of assay: functional.
The test system of assay [14] is Escherichia coli. Description: In vitro antibacterial activity against Escherichia. coli L. Type of assay: functional.
Assay [15] deals with Morganella morganii. As to the kind of experiment: In vitro antibacterial activity against Morganella morganii. Type of assay: functional.
For assay [16], the system named is Staphylococcus aureus. As to the kind of experiment: In vitro antibacterial activity against Staphylococcus aureus MR. Type of assay: functional.
The subject of assay [17] is Clostridium perfringens. As to the kind of experiment: In vitro antibacterial activity against Clostridium perfringens. Type of assay: functional.
The subject of assay [18] is Pseudomonas aeruginosa. As to the kind of experiment: microbe, parasite or virus in culture. To be noted: ATCC 27853.
In assay [19] the test system is Enterococcus faecalis. As to the kind of experiment: In vitro antibacterial activity against Enterococcus faecalis. Type of assay: functional.
The test system of assay [20] is Haemophilus influenzae. As to the kind of experiment: In vitro antibacterial activity against Haemophilus influenzae. Type of assay: functional.
The subject of assay [21] is Aeromonas sp. Description: In vitro antibacterial activity against Aeromonas species. Type of assay: functional.
In assay [22] the test system is Pseudomonas aeruginosa. Description: In vitro antibacterial activity against Pseudomonas aeruginosa. Type of assay: functional.
The test system of assay [23] is Bacteroides fragilis. Description: In vitro antibacterial activity against Bacteroides fragilis. Type of assay: functional.
Assay [24] relates to Streptococcus pyogenes. Description: In vitro antibacterial activity against Streptococcus pyogenes A. Type of assay: functional.
Assay [25] deals with Yersinia sp. As to the kind of experiment: In vitro antibacterial activity against Yersinia species. Type of assay: functional, yersinia spp. To be noted: Yersinia sp. (in: enterobacteria).
Assay [26] has as its system Proteus vulgaris. As to the kind of experiment: In vitro antibacterial activity against Proteus vulgaris. Type of assay: functional.
Assay [27] has as its system Escherichia coli. As to the kind of experiment: In vitro antibacterial activity against Escherichia coli. Type of assay: functional.
The test system of assay [28] is Stenotrophomonas maltophilia. Description: In vitro antibacterial activity against Xanthomonas maltophilia. Type of assay: functional.
Assay [29] concerns Klebsiella aerogenes. As to the kind of experiment: In vitro antibacterial activity against Enterobacter aerogenes. Type of assay: functional.
Assay [30] relates to Acinetobacter calcoaceticus subsp. anitratus. As to the kind of experiment: In vitro antibacterial activity against Acinetobacter anitratus. Type of assay: functional.
Assay [31] concerns Proteus mirabilis. As to the kind of experiment: In vitro antibacterial activity against Proteus mirabilis. Type of assay: functional.
The test system of assay [32] is Citrobacter freundii. Description: In vitro antibacterial activity against Citrobacter freundii. Type of assay: functional.
Assay [33] has as its system Moraxella catarrhalis. As to the kind of experiment: In vitro antibacterial activity against Branhamella catarrhalis. Type of assay: functional.
Assay [34] has as its system Providencia stuartii. Description: In vitro antibacterial activity against Providencia stuartii. Type of assay: functional.
Assay [35] has as its system Klebsiella pneumoniae. As to the kind of experiment: In vitro antibacterial activity against Klebsiella pneumoniae. Type of assay: functional.
The test system of assay [36] is Providencia rettgeri. As to the kind of experiment: In vitro antibacterial activity against Providencia rettgerii. Type of assay: functional.
For assay [37], the system named is Streptococcus agalactiae. Description: In vitro antibacterial activity against Streptococcus agalactiae B. Type of assay: functional.
In assay [38] the test system is Staphylococcus aureus. Description: In vitro antibacterial activity against Staphylococcus aureus MS. Type of assay: functional.
Assay [39] relates to Enterococcus faecium. As to the kind of experiment: In vitro antibacterial activity against Enterococcus faecium. Type of assay: functional.
The subject of assay [40] is Streptococcus pneumoniae. As to the kind of experiment: In vitro antibacterial activity against Streptococcus pneumoniae. Type of assay: functional.
For assay [41], the system named is Staphylococcus epidermidis. As to the kind of experiment: In vitro antibacterial activity against Staphylococcus epidermidis. Type of assay: functional.
Assay [42] concerns Listeria monocytogenes. Description: In vitro antibacterial activity against Listeria monocytogenes. Type of assay: functional.

As for `C[C@@H](O)[C@H]1C(=O)N2C(C(=O)O)=C(COC(N)=O)S[C@H]12` [RITIPENEM], the MIC in assay [1] is 1 µg/mL (≈ 3.47 µM); in assay [2] it was 0.06 µg/mL (≈ 0.208 µM); in [3], 2 µg/mL (≈ 6.94 µM); in assay [4], 0.12 µg/mL (≈ 0.416 µM); in [5], 1 µg/mL (≈ 3.47 µM); in [6] it was 2 µg/mL (≈ 6.94 µM). The MIC was 1 µg/mL (≈ 3.47 µM) in assay [7]; 1 µg/mL (≈ 3.47 µM) in assay [8]; 0.5 µg/mL (≈ 1.73 µM) in assay [9]; above 32 µg/mL in [10]; 1 µg/mL (≈ 3.47 µM) in assay [11]; 0.5 µg/mL (≈ 1.73 µM) in assay [12]. In addition, the MIC in assay [13] came out at 0.12 µg/mL (≈ 0.416 µM); in assay [14], 1 µg/mL (≈ 3.47 µM).

With `C[C@@H](O)[C@H]1C(=O)N2C(C(=O)O)=C(CSC(=S)N(C)CC(N)=O)SC12` (stereo partly drawn), the MIC in assay [1] stood at 8 µg/mL (≈ 20.4 µM); in assay [2] it was 0.12 µg/mL (≈ 0.307 µM); in assay [3], 8 µg/mL (≈ 20.4 µM); in assay [4], 0.12 µg/mL (≈ 0.307 µM); in assay [5], 16 µg/mL (≈ 40.9 µM); in [6], 2 µg/mL (≈ 5.11 µM). Besides, the MIC in assay [7] was 0.5 µg/mL (≈ 1.28 µM); in [8], 8 µg/mL (≈ 20.4 µM); in assay [9], 8 µg/mL (≈ 20.4 µM); in assay [10], above 32 µg/mL; in [11], 8 µg/mL (≈ 20.4 µM); in assay [12] it was 4 µg/mL (≈ 10.2 µM). Further, the MIC in [13] turned out to be 0.03 µg/mL (≈ 0.0766 µM); in assay [14], 16 µg/mL (≈ 40.9 µM).

Consider `CCCCOC(=O)CN(C)CC1=C(C(=O)O)N2C(=O)[C@H]([C@@H](C)O)C2S1` (stereo partly drawn), for which the MIC in assay [1] was above 32 µg/mL; in assay [2] it was 0.25 µg/mL (≈ 0.671 µM); in assay [3] it was 8 µg/mL (≈ 21.5 µM); in assay [4], 0.5 µg/mL (≈ 1.34 µM); in [5] it was above 32 µg/mL; in assay [6], 16 µg/mL (≈ 43 µM). The MIC in assay [7] was 1 µg/mL (≈ 2.68 µM); in [8], above 32 µg/mL; in assay [9], 32 µg/mL (≈ 85.9 µM); in assay [10], above 32 µg/mL; in assay [11], above 32 µg/mL; in [12] it was above 32 µg/mL. In addition, the results for the MIC in [13] and in assay [14] were 0.5 µg/mL (≈ 1.34 µM) and above 32 µg/mL, respectively.

Consider `C[C@@H](O)[C@H]1C(=O)N2C(C(=O)O)=C(SCCNC=N)C[C@H]12` [IMIPENEM ANHYDROUS], for which the MIC90 in assay [15] was 2 µg/mL (≈ 6.68 µM); in assay [16], above 32 µg/mL; in assay [17], 0.03 µg/mL (≈ 0.1 µM); in assay [19] it was 2 µg/mL (≈ 6.68 µM); in assay [20], 1 µg/mL (≈ 3.34 µM); in assay [21], 0.06 µg/mL (≈ 0.2 µM). Further, the MIC90 in [22] stood at 8 µg/mL (≈ 26.7 µM); in [23] it was 0.25 µg/mL (≈ 0.835 µM); in assay [24] it was 0.06 µg/mL (≈ 0.2 µM); in assay [25], 0.25 µg/mL (≈ 0.835 µM); in [26], 2 µg/mL (≈ 6.68 µM); in assay [27] it was 0.12 µg/mL (≈ 0.401 µM). Moreover, the MIC90 in [28] is above 64 µg/mL; in assay [29] it was 4 µg/mL (≈ 13.4 µM); in assay [30], 0.5 µg/mL (≈ 1.67 µM); in assay [31] it was 2 µg/mL (≈ 6.68 µM); in assay [32], 0.5 µg/mL (≈ 1.67 µM); in assay [33], 0.03 µg/mL (≈ 0.1 µM). Besides, the MIC90 in assay [34] was 2 µg/mL (≈ 6.68 µM); in assay [35], 0.25 µg/mL (≈ 0.835 µM); in [36] it was 1 µg/mL (≈ 3.34 µM); in [37], 0.015 µg/mL (≈ 0.0501 µM); in assay [38], 0.015 µg/mL (≈ 0.0501 µM); in [39], above 64 µg/mL. Besides, the MIC90 was 0.06 µg/mL (≈ 0.2 µM) in [40], 0.25 µg/mL (≈ 0.835 µM) in assay [41] and 0.03 µg/mL (≈ 0.1 µM) in assay [42]. Moreover, the MIC is 0.25 µg/mL (≈ 0.835 µM) in assay [1]; below 0.03 µg/mL in [2]; 1 µg/mL (≈ 3.34 µM) in assay [18]; 0.5 µg/mL (≈ 1.67 µM) in [3]; below 0.03 µg/mL in assay [4]; 0.25 µg/mL (≈ 0.835 µM) in assay [5]. Besides, the MIC was 0.25 µg/mL (≈ 0.835 µM) in [6]; 0.5 µg/mL (≈ 1.67 µM) in assay [7]; 0.25 µg/mL (≈ 0.835 µM) in assay [8]; 0.12 µg/mL (≈ 0.401 µM) in assay [9]; 0.25 µg/mL (≈ 0.835 µM) in assay [11]; 0.25 µg/mL (≈ 0.835 µM) in assay [12]. Moreover, the MIC in assay [13] and in assay [14] was 0.12 µg/mL (≈ 0.401 µM) each time.
